# Source: patent publication US8642087B1, “Compounds and methods for reducing oxidative stress” (University of Kentucky Research Foundation, priority 2010, dated 2014)
# Assays:
# [1] = system: HUVECs; assay: HNE-induced oxidative stress injury to HUVEC monolayer, transendothelial electrical resistance (TEER); assay type: cell-based, human; details: 20 hours; degradation products 100 μg/mL alone; HNE 30 μM alone
# Method: To assess the effect of 4-hydroxy-2-trans-nonenal (HNE)-induced oxidative stress injury to HUVECs in the presence of PAβAE degradation products, transendothelial electrical resistance (TEER) values were measured and used to monitor the permeability and injury of the cells subsequent to exposure to the degradation products of PAβAE and FINE. Briefly, HUVECs were seeded into 24 well plate Transwell inserts (Corning Costar Transwell Plates). Wells were rinsed with HBSS and media replaced every other day. TEER values (EVOM II reader, World Precision Instruments) were monitored every day until resistance stabilization after approximately 7 days. HUVECs were treated with degradation products of PAβAE, including 10% quercetin multiacrylate (QMA) and 10% curcumin multiacrylate (CMA), at a concentration of 100 μg/mL in the cell media for 1 hour. Following prophylactic incubation, and without removing PABAE degradation products, FINE was added to a final concentration 30 μM to induce oxidative injury. TEER was measured before cells were seeded, immediately before addition PABAE degradation products, and 20 hours following FINE incubation, which is consistent with maximum FINE induced injury. Change in TEER was calculated as shown below in Eq. 4. Change in TEER=(Ω20 hr−ΩTranswell insert)/(Ω0 hr−ΩTranswell insert) (4)
# [2] = system: human umbilical vein endothelial cells (HUVECs); details: 24 h
# Method: (§1) To further examine the properties of the PAβAE hydrogels and their ability to be used as a polymer that is capable of controllably releasing an antioxidant molecule, the cytotoxicity of PAβAE degradation products was measured. In this analysis, human umbilical vein endothelial cells (HUVECs) were first purchased from Lonza (Allendale, N.J.) and cultured in EGM-2 media with 2% fetal bovine serum at 37° C. in a humidified atmosphere of 5% CO2, with HUVECs in passages 3 to 5 then being used. To assess the cytotoxicity of the degradation products, the HUVECs were then treated with degradation products of the PAβAEs at different concentrations and a MTT assay was used to measure cell viability after treating cells with the different concentrations of PAβAE degradation products. Briefly, HUVECs were seeded onto a 96-well plate at a cell density of 35,000 cells/cm^2, and, 24 hrs later, cell media was replaced with treatment solutions. 24 hrs post treatment, treatment solution was removed, cells were washed twice in PBS, and 200 μL of 0.5 mg/ml MTT solution in cell media was added to each well. The 96-well plate was then incubated at 37° C. for 12 hrs and the cell media was gently removed from the wells. 100 μL of DMSO was added to each well to dissolve the formazan product. The absorbance intensity was recorded, at 570 nm for formazan and at 690 for background, using a Cary-50 Bio UV-Visible spectrophotometer equipped with a Cary 50 MPR microplate reader (Varian, Santa Clara, Calif.).
# (§2) PAβAE degradation products were then freeze dried and dissolved in DMSO at a concentration of 100 mg/ml. These concentrated DMSO solutions were then used to prepare fresh dilute solutions of PAβAE degradation products in cell media. Cells were treated with these PAβAE solutions for their cytotoxicity and their effect on cellular oxidative stress levels. To prepare quercetin and curcumin solutions, antioxidants were dissolved in DMSO at a concentration of 10 mg/ml and diluted in cell media.
# [3] = system: HUVECs; details: literature, cited from earlier work
# [4] = system: HUVECs; assay: H2O2-induced oxidative stress injury to HUVECs, cell viability by MTT assay; assay type: cell-based, human; details: for cell viability compared to untreated control cells: pre-treatment 2 hrs, then 500 μM H2O2, 24 hrs
# Method: To assess the effect of H2O2-induced oxidative stress injury to HUVECs in the presence of PAβAE degradation products, cell viability was measured and used as a marker of the injury to the cells subsequent to exposure to the degradation products of PAβAE and H2O2. […] Cells were exposed to antioxidants at different concentrations and a final H2O2 concentration of 500 μM. 24 hrs later, cell viability was measured using MTT assay as described above.
# [5] = in vitro; details: human
# Method: as §1, §2
# [6] = system: human normal liver cells L-02; details: literature; cited from earlier work
structure (smiles),measurement,setting,value
"CCCCCC(O)/C=C/C=O (stereo not drawn) [HNE, 4-hydroxy-2-trans-nonenal]",Change in TEER compared to the TEER measurement at 0 hours,[1],75±2
COc1cc(/C=C/C(=O)CC(=O)/C=C/c2ccc(O)c(OC)c2)ccc1O [curcumin],cell death,[2]; 5 μg/ml,40%
same,previously reported IC50 value for HUVECs,[3],10.8 µg/mL
same,cell viability compared to untreated control cells,[4],57.7 ± 1.6
same,IC50 at 24 h,[5],6.8 µg/mL
"OO [H2O2, hydrogen peroxide]",viability at 500 µM,"[4]; Homo sapiens, HUVEC, 500 μM H2O2 only, 24 hrs, read-out: cell viability compared to untreated control cells",72.9%
"O=c1c(O)c(-c2ccc(O)c(O)c2)oc2cc(O)cc(O)c12 [quercetin, Quercetin]",cytotoxicity (in words),[2],toxicity to HUVECs was note observed up to a concentration of 100 μg/ml
same,previously reported IC50 value for HUVECs,[3],18.4 µg/mL
same,IC50,[3]; read-out: previously reported IC50 value for HUVECs,61 µM
same,IC50,[6],113 µM
same,cell viability compared to untreated control cells,[4],101.13 ± 3.8
